Assay results from ChEMBL document CHEMBL3885861, “Open TG-GATES”.

Species on record: Rattus norvegicus
Test: Open TG-GATES - Regimen: Single
Type: toxicity, organism-based, Sprague-Dawley
Parameters: regimen Single, gender Male, age 6 weeks
Details: in vivo, po, 2000 mg/kg, route gavage, dose level High; for APTT / Bas / Eos / Fbg / Hb / Ht / Lym / MCH / MCHC / MCV / Mono / Neu / PT / Plat / RBC / Ret / WBC: tissue Blood; for KIDNEY_L / KIDNEY_R / KIDNEY_TOTAL: tissue Kidney; for LIVER: tissue Liver; for A/G / ALP / ALT / AST / BUN / CRE / Ca / Cl / DBIL / GLC / IP / K / LDH / Na / PL / RALB / TBIL / TC / TG / TP / gamma-GTP: tissue Plasma

CC(=O)[C@@]1(O)CC[C@H]2[C@@H]3C=C(Cl)C4=CC(=O)CC[C@]4(C)[C@H]3CC[C@@]21C [CHLORMADINONE]
TERMINAL_BW (3 h): 222.1 g | APTT (3 h): 22.6 s | Bas (3 h): 0% | Eos (3 h): 1% | Fbg (3 h): 306 mg/dL | Hb (3 h): 12.8 g/dL | Ht (3 h): 39.5% | Lym (3 h): 74.8% | MCH (3 h): 20 pg | MCHC (3 h): 32.4% | MCV (3 h): 61.8 fL | Mono (3 h): 2% | Neu (3 h): 21.6% | PT (3 h): 15.2 s | Plat (3 h): 107.8 x10_4/uL | RBC (3 h): 639.8 x10_4/ul | Ret (3 h): 7.8% | WBC (3 h): 55.6 x10_2/uL | KIDNEY_L (3 h): 0.9 g | KIDNEY_R (3 h): 1 g | KIDNEY_TOTAL (3 h): 1.9 g | LIVER (3 h): 10.1 g | A/G (3 h): 1.2 | ALP (3 h): 1401.2 IU/L | ALT (3 h): 45.6 IU/L | AST (3 h): 81 IU/L | BUN (3 h): 13.8 mg/dL | CRE (3 h): 0.2 mg/dL | Ca (3 h): 10.9 mg/dL | Cl (3 h): 105.2 meq/L | DBIL (3 h): 0.004 mg/dL | GLC (3 h): 172.2 mg/dL | IP (3 h): 8.9 mg/dL | K (3 h): 4.2 meq/L | LDH (3 h): 143.6 IU/L | Na (3 h): 141.2 meq/L | PL (3 h): 138 mg/dL | RALB (3 h): 3 g/dL | TBIL (3 h): 0.032 mg/dL | TC (3 h): 73.6 mg/dL | TG (3 h): 50.8 mg/dL | TP (3 h): 5.5 g/dL | gamma-GTP (3 h): 1.4 IU/L | TERMINAL_BW (6 h): 216.3 g | APTT (6 h): 23.1 s | Bas (6 h): 0% | Eos (6 h): 0.6% | Fbg (6 h): 313.4 mg/dL | Hb (6 h): 13.5 g/dL | Ht (6 h): 41.5% | Lym (6 h): 74% | MCH (6 h): 20.8 pg | MCHC (6 h): 32.6% | MCV (6 h): 63.7 fL | Mono (6 h): 1.6% | Neu (6 h): 23.4% | PT (6 h): 15.1 s | Plat (6 h): 124.8 x10_4/uL | RBC (6 h): 651.8 x10_4/ul | Ret (6 h): 7.9% | WBC (6 h): 64 x10_2/uL | KIDNEY_L (6 h): 1 g | KIDNEY_R (6 h): 1 g | KIDNEY_TOTAL (6 h): 2 g | LIVER (6 h): 10.3 g | A/G (6 h): 1.2 | ALP (6 h): 1302 IU/L | ALT (6 h): 40.4 IU/L | AST (6 h): 72.8 IU/L | BUN (6 h): 13 mg/dL | CRE (6 h): 0.1 mg/dL | Ca (6 h): 10.8 mg/dL | Cl (6 h): 106.2 meq/L | DBIL (6 h): 0.004 mg/dL | GLC (6 h): 177.4 mg/dL | IP (6 h): 9.6 mg/dL | K (6 h): 4.8 meq/L | LDH (6 h): 157 IU/L | Na (6 h): 140 meq/L | PL (6 h): 138 mg/dL | RALB (6 h): 3.2 g/dL | TBIL (6 h): 0.034 mg/dL | TC (6 h): 77.2 mg/dL | TG (6 h): 39.8 mg/dL | TP (6 h): 5.7 g/dL | gamma-GTP (6 h): 1.6 IU/L | TERMINAL_BW (9 h): 215.8 g | APTT (9 h): 24.7 s | Bas (9 h): 0% | Eos (9 h): 0% | Fbg (9 h): 319.6 mg/dL | Hb (9 h): 13 g/dL | Ht (9 h): 40.7% | Lym (9 h): 71.2% | MCH (9 h): 20.2 pg | MCHC (9 h): 31.9% | MCV (9 h): 63.4 fL | Mono (9 h): 1% | Neu (9 h): 27.2% | PT (9 h): 15.7 s | Plat (9 h): 119.5 x10_4/uL | RBC (9 h): 642 x10_4/ul | Ret (9 h): 7.9% | WBC (9 h): 51.3 x10_2/uL | KIDNEY_L (9 h): 0.9 g | KIDNEY_R (9 h): 1 g | KIDNEY_TOTAL (9 h): 1.9 g | LIVER (9 h): 9.8 g | A/G (9 h): 1.3 | ALP (9 h): 1584 IU/L | ALT (9 h): 39.4 IU/L | AST (9 h): 78 IU/L | BUN (9 h): 12.8 mg/dL | CRE (9 h): 0.1 mg/dL | Ca (9 h): 10.6 mg/dL | Cl (9 h): 106.6 meq/L | DBIL (9 h): 0 mg/dL | GLC (9 h): 178 mg/dL | IP (9 h): 9.4 mg/dL | K (9 h): 4.5 meq/L | LDH (9 h): 142 IU/L | Na (9 h): 141 meq/L | PL (9 h): 142.4 mg/dL | RALB (9 h): 3.2 g/dL | TBIL (9 h): 0.028 mg/dL | TC (9 h): 73 mg/dL | TG (9 h): 67.2 mg/dL | TP (9 h): 5.7 g/dL | gamma-GTP (9 h): 1.4 IU/L | TERMINAL_BW (24 h): 229.8 g | APTT (24 h): 25.3 s | Bas (24 h): 0% | Eos (24 h): 1% | Fbg (24 h): 341.6 mg/dL | Hb (24 h): 14 g/dL | Ht (24 h): 42.6% | Lym (24 h): 77.6% | MCH (24 h): 20.4 pg | MCHC (24 h): 32.8% | MCV (24 h): 62 fL | Mono (24 h): 2.6% | Neu (24 h): 17.8% | PT (24 h): 15.3 s | Plat (24 h): 106.3 x10_4/uL | RBC (24 h): 687 x10_4/ul | Ret (24 h): 7.3% | WBC (24 h): 130.3 x10_2/uL | KIDNEY_L (24 h): 1 g | KIDNEY_R (24 h): 1 g | KIDNEY_TOTAL (24 h): 2 g | LIVER (24 h): 11.8 g | A/G (24 h): 1.2 | ALP (24 h): 1835.4 IU/L | ALT (24 h): 51.2 IU/L | AST (24 h): 75 IU/L | BUN (24 h): 15.8 mg/dL | CRE (24 h): 0.2 mg/dL | Ca (24 h): 11.3 mg/dL | Cl (24 h): 105.4 meq/L | DBIL (24 h): 0 mg/dL | GLC (24 h): 192.4 mg/dL | IP (24 h): 7.8 mg/dL | K (24 h): 4.7 meq/L | LDH (24 h): 201 IU/L | Na (24 h): 140.6 meq/L | PL (24 h): 185.2 mg/dL | RALB (24 h): 3.2 g/dL | TBIL (24 h): 0.004 mg/dL | TC (24 h): 82 mg/dL | TG (24 h): 222 mg/dL | TP (24 h): 5.8 g/dL | gamma-GTP (24 h): 1.4 IU/L
